pIC50: −log10 of the molar value. The source made the active and inactive calls. The calls are words filed in the database; no cut-off is given here.
Columns and labels:
A549 [1] = assay: Cytotoxicity against human A549 cells after 24 hrs by YO-PRO-1 assay; format: functional, cell-based; conditions: A549, 24 h
A549 [2] = assay: Cytotoxicity against human A549 cells after 24 hrs by propidium iodide assay; format: functional, cell-based; conditions: A549, 24 h
A549 [3] = assay: Induction of early stage apoptosis in human A549 cells assessed as mitotracker dye uptake; format: functional, cell-based
A549 [4] = assay: Cytotoxicity against human A549 cells at 100 uM; format: functional
A549 [5] = assay: Induction of early stage apoptosis in human A549 cells assessed as mitotracker dye uptake at 30 uM after 24 hrs; format: functional, cell-based

Row | Compound | IC50 (A549 [1]) [µg/mL] | pIC50 (A549 [2]) | pIC50 (A549 [1]) | IC50 (A549 [2]) [µg/mL] | inhibition at 100 µM (A549 [4]) [%] | also measured
1 | CC(=O)O[C@H]1C(=O)[C@@]2(C)[C@H]([C@H](OC(=O)c3ccccc3)[C@]3(O)C[C@H](OC(=O)[C@H](O)[C@@H](NC(=O)c4ccccc4)c4ccccc4)C(C)=C1C3(C)C)[C@]1(OC(C)=O)CO[C@@H]1C[C@@H]2O [PACLITAXEL] | 0.0196 |  |  |  |  | 
2 | COc1cc(C[C@@H](C)[C@H](C)Cc2ccc(O)c(OC)c2)ccc1O [(-)-DIHYDROGUAIARETICACID] |  | 5.13 | 5.13 |  |  | pIC50 (A549 [3]): 4.51
3 | COC[C@H]1OC(=O)c2coc3c2[C@@]1(C)C1=C(C3=O)[C@@H]2CCC(=O)[C@@]2(C)C[C@H]1OC(C)=O [WORTMANNIN] | 0.00428 |  |  | 0.00428 |  | 
4 | COc1ccc([C@@H]2[C@@H](C)[C@@H](C)[C@@H]2c2ccc(OC)c(OC)c2)cc1OC [CINBALANSAN] |  |  |  |  | 34 | Activity (A549 [5]): Active
5 | COc1cc([C@@H]2[C@@H](C)[C@@H](C)[C@@H]2c2ccc(O)c(OC)c2)ccc1O [ENDIANDRIN B] |  |  |  |  | 75 | 
6 | COc1cc([C@@H]2[C@@H](C)[C@H](C)[C@H]2c2ccc(O)c(OC)c2)ccc1O [ENDIANDRIN A] |  |  |  |  | 76 | 
7 | COc1cc2c(c(OC)c1OC)-c1ccc(OC)c(=O)cc1[C@@H](NC(C)=O)CC2 [COLCHICINE] | 0.0108 |  |  | 0.0108 |  | 

Reference: ChEMBL document CHEMBL1143379, “Isolation, structure elucidation and cytotoxic evaluation of endiandrin B from the Australian rainforest plant Endiandra anthropophagorum” (Bioorg Med Chem, 2009)
